We go through two molecules from patent US20040229356A1, “In vitro mass production of human erythroid cells from the blood of normal donors and thalassemic patients” (ISTITUTO SUPERIORE DI SANITA, priority 2003, published 2004).

Experiment [1] concerns CD34^+ cells. The experiment is described as follows: Differentiative-phase culture (EPO and insulin, 5 additional days) of cells harvested from the proliferative phase, benzidine staining. Type of experiment: cell-based, human. As to conditions: for frequency of benzidine^pos cells after differentiative phase: independent of priming duration (either 8 or 13 days) with GFs plus the steroid, then EPO and insulin. How it is done: Light-density cells and CD34^+ cells were cultured for the proliferative phase in Iscove's modified Dulbecco's medium (IMDM, Mascia Brunelli, Milan, Italy) containing 20% of fetal bovine serum (FBS, Hyclone, Logan, Utah) and supplemented with Stem Cell Factor (SCF, 10 ng/mL) (Amgen, Thousand Oaks, Calif.), Erythropoietin (EPO, 1 u/mL) (Epoetina alfa, Dompe Biotec, Milan, Italy), Interleukin-3 (IL-3, 1 ng/mL) (Bouty, Milan, Italy), dexamethasone (10^−6 M) (Sigma), and estradiol (10^−6 M) (Sigma). Light-density and CD34^+ cells were seeded at a concentration of 10^6 and 10^5 cells/mL, respectively.
Cell morphology was analyzed according to standard criteria on cytocentrifuged (Shandon, Astmoor, England) smears stained with May-Grumwald-Giemsa. Hemoglobin-containing cells were identified by benzidine staining (S. H. Orkin, Proc. Natl. Acad. Sci. USA 72, 98-102 (1975)). The cell antigenic profile was analyzed by flow cytometry with a Coulter Elite ESP Cell Sorter (Coulter, Miami, Fla.) according to standard protocols. […] Cells incubated with the corresponding, irrelevant, isotype-matched antibodies were used for gating nonspecific fluorescence and dead cells were excluded by propidium iodide staining (5 μg/mL) (Sigma).
The total cell number observed in cultures of CD34^+ cells cultured for up to 14 days in the presence of the combination of SCF, IL-3 and EPO (growth factors, GFs), alone or with the further addition of estradiol or of dexamethasone, is presented in FIG. 1. In all three conditions analyzed, the total cell number per culture rose from 0.1×10^6 cells at day 0 to 10×10^6 at day 7 and continued to increase, reaching up to 100×10^6 by day 13. […] The total number of erythroid cells obtained at the end of the proliferative-plus-differentiative phase can be calculated by multiplying the total number of cells presented in FIG. 1 by the frequency of benzidinepos cells presented in FIG. 2. […]

The subject of experiment [2] is CD34^+ cells. As to the kind of experiment: Proliferative-phase liquid culture of CD34+ cells (total cell number, benzidine staining). Type of experiment: cell-based, human. As to conditions: day 8 of proliferative phase; estradiol or dexamethasone added to GFs (SCF, IL-3, EPO). As for the experimental part:
Light-density cells were collected, washed with Hank's basal salt solution supplemented with 1% (w/v) bovine serum albumin, and either cultured directly or cryopreserved in 10% dimethyl sulfoxide (Sigma, St. Louis, Mo.). Frozen cadaveric marrow cells obtained from Northwest Tissue Center, Puget Sound Blood Bank (Seattle, Wash.) were thawed, washed, and incubated overnight in IMDM with 10% fetal calf serum on tissue culture plates to remove adherent cells. […]
Cell morphology was analyzed according to standard criteria on cytocentrifuged (Shandon, Astmoor, England) smears stained with May-Grumwald-Giemsa. […] The cell antigenic profile was analyzed by flow cytometry with a Coulter Elite ESP Cell Sorter (Coulter, Miami, Fla.) according to standard protocols. […] Cells incubated with the corresponding, irrelevant, isotype-matched antibodies were used for gating nonspecific fluorescence and dead cells were excluded by propidium iodide staining (5 μg/mL) (Sigma).
The total cell number observed in cultures of CD34^+ cells cultured for up to 14 days in the presence of the combination of SCF, IL-3 and EPO (growth factors, GFs), alone or with the further addition of estradiol or of dexamethasone, is presented in FIG. 1. In all three conditions analyzed, the total cell number per culture rose from 0.1×10^6 cells at day 0 to 10×10^6 at day 7 and continued to increase, reaching up to 100×10^6 by day 13. […]

Consider `C[C@@H]1C[C@H]2[C@@H]3CCC4=CC(=O)C=C[C@]4(C)[C@@]3(F)[C@@H](O)C[C@]2(C)[C@@]1(O)C(=O)CO` [dexamethasone], for which the “total number of erythroid cells obtained at end of proliferative-plus-differentiative phase” value in experiment [1] (differentiation started at day 8 of proliferative phase, total cell number multiplied by benzidine^pos frequency) is given as ≤ 7×10^6 erythroid cells. In addition, in experiment [1], the “frequency of benzidine^pos cells after differentiative phase” value is given as 80-95%. Besides, the “percent of benzidine positive cells (mature erythroid cells)” value in experiment [2] was less than 10%.

As to `C[C@]12CC[C@@H]3c4ccc(O)cc4CC[C@H]3[C@@H]1CC[C@@H]2O` [estradiol], the “frequency of benzidine^pos cells after differentiative phase” value in experiment [1] is on record as 40-60%.
